One data set has as its system H9c2 cardiomyocytes. Put plainly: Transwell co-culture of MSC with H9c2 exposed to H2O2, specific DNA fragmentation in H9c2. In kind it is cell-based, rattus norvegicus. As to conditions: vs naive MSC. Here is the method: FIG. 7: Increased anti-apoptotic effects of PPARβ/δ-primed MSC on cardiomyocytes. (A) After 24 hours of MSC pharmacological preconditioning using PPARβ/δ agonist, cells were co-cultured using transwells (upper chamber) with H9c2 (lower chamber). Both cultures were exposed to 4 hours of 350 μM of H2O2 in minimal medium (serum deprivation). At the end of the protocol, specific DNA fragmentation was quantified in H9c2 cells and values were compared with those obtained for co-cultures with naive MSC or MSC pre-treated with PPARβ/δ antagonists (GSK0660 or GSK03787) and exposed to 350 H2O2μM (B, C, D) Scatter dot plot and bars were presented for specific DNA fragmentation quantified in H9c2 at the end of the protocols. Data (mean±SD for each group of treatment) were normalized by values obtained with naive MSC/H2O2 and compared using Kruskal-Wallis (Dunn's post hoc test). (B): data were obtained using the condition 1 protocol. (C): the condition 2 protocol P was followed and p value was noted **** for p<0.0001 (MSC, n=16 independent cultures vs MSC/H2O2, n=18). For the data obtained with condition 3 protocol (D), p value was noted * for p=0.0436 (MSC+1 μM GSK0660/H2O2, n=6 vs MSC/H2O2, n=10).
H9c2, rattus norvegicus cardiomyocytes, were cultured in Dulbecco's modified Eagle's medium (DMEM), supplemented with 10% fetal bovine serum (FBS), 100 Units/mL penicillin, and 100 μg/mL streptomycin. To induce apoptosis, H9c2 were cultured in a minimal medium (without FBS) containing 350 μM of H2O2 during 4 hours. In order to evaluate the effect of MSCs on cardiomyocytes, a co-culture assay was designed using the transwell system to avoid cell-cell contact. 15,000 cardiomyocytes (lower part) were plated per well of a 12-well dish with or 15,000 MSC (upper part) in presence of 350 OA of H2O2. Two different protocols of co-culture were performed. In protocol 1, H9c2 and co-cultured MSC were exposed to H2O2(with serum deprivation). In protocol 2, H9c2 were exposed to H2O2 in minimal medium during 4 hours and after a wash, cells were co-cultured in complete medium with MSC. In protocol 3, H9c2 were cultured in presence of H2O2 during 4 hours in regular medium deprived in serum, which was continued for an extra 1 hour. Then the co-culture of H9c2 with MSC was performed in complete medium for 1 hour. At the end of all protocols, H9c2 were recovered for apoptosis and RT-qPCR analysis.
DNA fragmentation was quantified in vitro on cell lysates with an enzyme-linked immunosorbent assay kit (Cell Death ELISA; Roche Diagnostics) designed to measure of histone-complexed DNA fragments (mono- and oligonucleosomes) out of the cytoplasm of cells after the induction of apoptosis.
To determine the role of PPARβ/δ on MSC-induced protective effect on cardiomyocytes we designed and developed three protocols in order to mimic the stress received by MSC when transplanted into infarcted tissues. The first protocol consisted in co-culturing naive or primed MSC with H9c2 exposed to 350 μM of H2O2 for 4 hours using transwell. The second protocol consisted in exposing […] μM of H2O2 for 4 hours before to co-culture them with naive or primed MSC in a complete medium. The third protocol consisted in exposing H9c2 to 350 μM of H2O2 for 4 hours followed by serum deprivation for 1 hour before to co-culture them with naive or primed MSC in a complete medium (FIG. 7A).

For data set [1] the following is noted: 3 mg/kg/day, mice; cited from earlier work.
Data set [2] relates to isolated perfused hearts from C57B16 mice. Put plainly: Ex vivo Langendorff ischemia-reperfusion, infarct size, effect of preconditioning duration (Example 3). Also noted: species or system mouse (C57BL/6). As to conditions: 4.10^5 cells/heart; for Decrease in infarct size: vs IR.
The conditions of data set [3]: 3 mg/kg/day, rats; cited from earlier work.
In data set [4] the test system is cardiomyoblast cell line H9c2. As to conditions: H9c2 cardiomyoblasts; cited from earlier work.

Structures are written as SMILES. Like-named read-outs stand apart in the source and are kept apart here.

Take `O=C(NCCS(=O)(=O)c1ccc(C(F)(F)F)cn1)c1ccc(Cl)cc1` [GSK3787]: the “Specific DNA fragmentation in H9c2 (anti-apoptotic effect of MSC)” value with H9c2 cardiomyocytes (protocol 1: MSC pretreated 24 h with 1 μM, co-cultured with H9c2 under 350 μM H2O2 4 h) is “lose their capacity to protect cardiomyocytes from apoptosis”; with H9c2 cardiomyocytes (protocol 2: H9c2 exposed to 350 μM H2O2 4 h, then co-culture in complete medium with MSC pretreated with 1 μM), “did not change MSC protective properties”; in the data set on H9c2 cardiomyocytes (protocol 3: H9c2 350 μM H2O2 4 h, serum deprivation 1 h, then co-culture in complete medium with MSC pretreated with 1 μM), “lose their capacity to protect cardiomyocytes from apoptosis”.

Regarding `Cc1cc(SCc2sc(-c3ccc(C(F)(F)F)cc3)nc2C)ccc1OCC(=O)O` [GW501516], the Carcinogenicity result in data set [1] and in data set [3] was “caused cancer to develop rapidly in several organs” in each case. The “Infarct size, mean value” was 37.4 % of LV mass in data set [2] (MSC preconditioned 24 h (1-day) with 0.1 μM, n=7) and 36.05% in data set [2] (MSC preconditioned 4 days with 0.1 μM, n=8). For the same compound, the “Decrease in infarct size” value in data set [2] (MSC preconditioned 24 h with 0.1 μM) is given as 52.8%; in data set [2] (MSC preconditioned 4 days (96 h) with 0.1 μM), 54.5%. In addition, in data set [4], the “Protection from H2O2-induced cell death” value is reported as “protect the cardiomyoblast cell line H9c2 from H2O2-induced cell death”.

Values taken from US20240091267A1, “PRE-TREATMENT OF MSC WITH PPARB/DELTA AGONIST FOR TREATMENT OF ISCHEMIA-REPERFUSION INJURY” (Universite de Montpellier, priority 2020, published 2024).
